Like-named read-outs stand apart in the source and are kept apart here.
Tests used:
VIM-1 = VIM-1 (Pseudomonas aeruginosa (strain ATCC 15692 / DSM 22644 / CIP 104116 / JCM 14847 / LMG 12228 / 1C / PRS 101 / PAO1), UniProt A0A0F7KYQ8); test: Enzyme activity: determination of IC50, fluorescence assay with CCF2-FA substrate (VIM-1); type: biochemical
IMP-1 = IMP-1 (Serratia marcescens, UniProt P52699); test: biochemical; type: biochemical; conditions: read-out: IMP-1 IC50
[1] = tested on: Klebsiella pneumoniae expressing VIM-1 (IHMA599644); test: Antibiotic potentiation activity: synergistic concentration (MITC95) with imipenem, OD600 growth; type: cell-based; conditions: for Klebsiella pneumoniae expressing VIM-1 (IHMA 599644) MITC95: concentration giving 95% inhibition of bacterial growth
How it was run: (§1)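 Overnight colonies (35 °C) were suspended in saline, diluted 1:100 into 1.1× CAMHB, and exposed to test compound with imipenem at 4 μg/ml (optionally 1 μg/ml) in assay. After 22–24 h at 35 °C, growth was read by absorbance.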

[2] = tested on: Serratia marcescens expressing IMP-1 (CL5741); test: as above; type: cell-based; conditions: for Serratia marcescens expressing IMP-1 (CL5741) MITC95: concentration giving 95% inhibition of bacterial growth
How it was run: as §1

[3] = tested on: Escherichia coli expressing NDM-1 (CLB30016); test: as above; type: cell-based; conditions: for Escherichia coli expressing NDM-1 (CLB 30016) MITC95: concentration giving 95% inhibition of bacterial growth
How it was run: as §1

NDM-1 = NDM-1 (Klebsiella pneumoniae, UniProt C7C422); test: biochemical; type: biochemical; conditions: read-out: NDM-1 IC50
[4] = VIM-1 IC50, VIM-1 enzyme, CCF2-FA substrate
[5] = IMP-1 enzyme, CCF2-FA substrate
[6] = Klebsiella pneumoniae IHMA599644 (VIM-1), 95% growth inhibition
[7] = Serratia marcescens CL5741 (IMP-1), 95% growth inhibition
[8] = (CLB30016, NDM-1), 95% growth inhibition
[9] = NDM-1 enzyme, CCF2-FA substrate
[10] = VIM-1 enzyme, CCF2-FA fluorescence assay, read-out: VIM-1 IC50
[11] = IMP-1 enzyme, CCF2-FA fluorescence assay
[12] = Klebsiella pneumoniae expressing VIM-1 (IHMA599644), 95% growth inhibition
[13] = Serratia marcescens expressing IMP-1 (CL5741), 95% growth inhibition
[14] = Escherichia coli expressing NDM-1 (CLB30016), 95% growth inhibition
[15] = NDM-1 enzyme, CCF2-FA fluorescence assay
[16] = VIM-1 enzyme, CCF2-FA substrate, read-out: VIM-1 IC50
[17] = fluorescence assay with CCF2-FA substrate, read-out: VIM-1 IC50
[18] = fluorescence assay with CCF2-FA substrate
[19] = IHMA599644 (VIM-1), 95% inhibition of bacterial growth
[20] = CL5741 (IMP-1), 95% inhibition of bacterial growth
[21] = CLB30016 (NDM-1), 95% inhibition of bacterial growth

Sequence of IMP-1 (P52699 whole entry, looked up): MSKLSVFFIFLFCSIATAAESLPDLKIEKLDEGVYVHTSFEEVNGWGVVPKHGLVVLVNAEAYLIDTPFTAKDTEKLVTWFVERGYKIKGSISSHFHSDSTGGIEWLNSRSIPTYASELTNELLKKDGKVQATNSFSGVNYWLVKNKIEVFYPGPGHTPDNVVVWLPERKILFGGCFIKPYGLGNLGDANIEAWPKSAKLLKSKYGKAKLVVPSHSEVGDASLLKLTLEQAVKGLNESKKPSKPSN
Sequence of NDM-1 (C7C422 whole entry, looked up, species assumed): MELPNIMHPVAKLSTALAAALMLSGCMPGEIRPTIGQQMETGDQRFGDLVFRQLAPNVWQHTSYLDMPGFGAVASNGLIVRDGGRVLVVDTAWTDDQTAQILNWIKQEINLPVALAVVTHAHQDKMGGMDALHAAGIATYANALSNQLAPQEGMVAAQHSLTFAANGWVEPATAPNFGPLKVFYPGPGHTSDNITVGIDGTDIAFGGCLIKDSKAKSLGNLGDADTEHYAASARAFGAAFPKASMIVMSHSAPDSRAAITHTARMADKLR

Row | Structure (SMILES) | IC50 (VIM-1; [10]) [nM] | IC50 (IMP-1; [11]) [nM] | Klebsiella pneumoniae MITC95 [1, 12] [µM] | Serratia marcescens MITC95 [2, 13] [µM] | Escherichia coli MITC95 [3, 14] [µM] | IC50 (NDM-1; [15]) [nM] | IC50 (IMP-1; [18]) [nM] | IC50 (NDM-1; [18]) [nM] | further results
1 | NS(=O)(=O)c1c(CC[C@H]2CC[C@H](N)CC2)ccc(-c2ccc(C3CNC3)cc2)c1-c1nnn[nH]1 [Example 599, 4-(2-((1r,4s)-4-aminocyclohexyl)ethyl)-4′-(azetidin-3-yl)-2-(1H-tetrazol-5-yl)-[1,1′-biphenyl]-3-sulfonamide] |  |  |  |  |  |  |  |  | IC50 (VIM-1; [4]): 5.33 nM; IC50 (IMP-1; [5]): 6.43 nM; Klebsiella pneumoniae MITC95 [1, 6]: 3.125 µM; Serratia marcescens MITC95 [2, 7]: 3.125 µM; Escherichia coli MITC95 [3, 8]: 1.563 µM; IC50 (NDM-1; [9]): 2.12 nM
2 | NS(=O)(=O)c1c(C(F)(F)F)ccc(CC[C@H]2CC[C@@H](N)CC2)c1-c1nn[nH]n1 [Example 432, 3-(2-((1s,4r)-4-aminocyclohexyl)ethyl)-2-(2H-tetrazol-5-yl)-6-(trifluoromethyl)benzenesulfonamide] | 4.72 | 11.7 | 18.75 | 0.3906 | 6.25 | 47.9 |  |  | 
3 | NS(=O)(=O)c1cccc(-c2ccc(CN3CCC(CCO)C3)cc2)c1-c1nnn[nH]1 (stereo not drawn) [Example 393, 4′-{[3-(2-hydroxyethyl)pyrrolidin-1-yl]methyl}-2-(1H-tetrazol-5-yl)biphenyl-3-sulfonamide] | 509 | 338 | 200 | 4.688 | 1.563 | 10.8 |  |  | 
4 | N=C(N)N1Cc2ccc(-c3ccc(C(F)(F)F)c(S(N)(=O)=O)c3-c3nn[nH]n3)cc2C1 [Example 446, 5-(3-sulfamoyl-2-(2H-tetrazol-5-yl)-4-(trifluoromethyl)phenyl)isoindoline-2-carboximidamide] | 0.252 | 19.4 | 1.563 | 0.3906 | 1.563 | 15.4 |  |  | 
5 | NS(=O)(=O)c1c(CCC(F)(F)F)ccc(-c2ccc(C3CCNCC3)cc2)c1-c1nn[nH]n1 [Example 473, 4′-(piperidin-4-yl)-2-(2H-tetrazol-5-yl)-4-(3,3,3-trifluoropropyl)-[1,1′-biphenyl]-3-sulfonamide] | 1.42 | 7.3 | 4.688 | 0.5859 | 4.688 | 4.47 |  |  | 
6 | NS(=O)(=O)c1cccc(-c2ccc(C3CCN(CC4CNC4)CC3)cc2)c1-c1nnn[nH]1 [Example 617, 3-[4-[1-(azetidin-3-ylmethyl)-4-piperidyl]phenyl]-2-(1H-tetrazol-5-yl)benzenesulfonamide] |  |  |  |  |  |  |  |  | IC50 (VIM-1; [16]): 334 nM; IC50 (IMP-1; [5]): 9.66 nM; Klebsiella pneumoniae MITC95 [1, 6]: 37.5 µM; Serratia marcescens MITC95 [2, 7]: 0.2969 µM; Escherichia coli MITC95 [3, 8]: 0.25 µM; IC50 (NDM-1; [9]): 10 nM
7 | NS(=O)(=O)c1c(C(F)(F)F)ccc(-c2cccc3cnccc23)c1-c1nn[nH]n1 [Example 515, 3-(Isoquinolin-5-yl)-2-(2H-tetrazol-5-yl)-6-(trifluoromethyl)benzenesulfonamide] |  |  |  |  |  |  |  |  | IC50 (VIM-1; [4]): 0.309 nM; IC50 (IMP-1; [5]): 3.68 nM; Klebsiella pneumoniae MITC95 [1, 6]: 6.25 µM; Serratia marcescens MITC95 [2, 7]: 0.3906 µM; Escherichia coli MITC95 [3, 8]: 4.688 µM; IC50 (NDM-1; [9]): 0.603 nM
8 | Nc1ccc(-c2cccc(S(N)(=O)=O)c2-c2nnn[nH]2)c2ccncc12 [Example 415, 3-(8-amino-5-isoquinolyl)-2-(1H-tetrazol-5-yl)benzenesulfonamide] | 1.1 | 32.3 | 3.125 | 1.172 | 0.5859 | 0.58 |  |  | 
9 | NS(=O)(=O)c1c(C(F)(F)F)ccc(-c2ccc(C3CCN(C[C@@H]4CCCN4)CC3)cc2)c1-c1nnn[nH]1 [Example 669, 4′-{1-[(2S)-pyrrolidin-2-ylmethyl]piperidin-4-yl}-2-(1H-tetrazol-5-yl)-4-(trifluoromethyl)biphenyl-3-sulfonamide] |  |  |  |  |  |  |  |  | IC50 (VIM-1; [4]): 8.99 nM; IC50 (IMP-1; [5]): 0.688 nM; Klebsiella pneumoniae MITC95 [1, 6]: >200 µM; Serratia marcescens MITC95 [2, 7]: 2.344 µM; Escherichia coli MITC95 [3, 8]: 2.344 µM; IC50 (NDM-1; [9]): 3.92 nM
10 | NS(=O)(=O)c1cccc(CCC2CCCCC2)c1-c1nnn[nH]1 [Example 164, 3-(2-cyclohexylethyl)-2-(1H-tetrazol-5-yl)benzenesulfonamide] |  |  |  |  |  |  | 5.5 | 2.93 | IC50 (VIM-1; [17]): 50.6 nM; Klebsiella pneumoniae expressing VIM-1 (IHMA 599644) MITC95 [1]: 200 µM; Serratia marcescens expressing IMP-1 (CL5741) MITC95 [2]: 0.3906 µM; Escherichia coli expressing NDM-1 (CLB 30016) MITC95 [3]: 1.563 µM
11 | NS(=O)(=O)c1cccc(CC2CCCCC2)c1-c1nnn[nH]1 [Example 153, 3-(cyclohexylmethyl)-2-(1H-tetrazol-5-yl)benzenesulfonamide] |  |  |  |  |  |  | 71.3 | 8.25 | IC50 (VIM-1; VIM-1 IC50, fluorescence assay with CCF2-FA substrate): 252 nM; Klebsiella pneumoniae expressing VIM-1 (IHMA 599644) MITC95 [1]: >200 µM; Serratia marcescens expressing IMP-1 (CL5741) MITC95 [2]: 2.344 µM; Escherichia coli expressing NDM-1 (CLB 30016) MITC95 [3]: 4.688 µM
12 | NS(=O)(=O)c1c(C(F)(F)F)ccc(-c2ccc(C3CN(C4CCNC4)C3)cc2)c1-c1nnn[nH]1 (stereo not drawn) [Example 801, 4′-(1-pyrrolidin-3-ylazetidin-3-yl)-2-(1H-tetrazol-5-yl)-4-(trifluoromethyl)biphenyl-3-sulfonamide] |  |  |  |  |  |  | 2.8 | 2.22 | IC50 (VIM-1; [17]): 9.45 nM; Klebsiella pneumoniae MITC95 [1, 19]: 100 µM; Serratia marcescens MITC95 [2, 20]: 6.25 µM; Escherichia coli MITC95 [3, 21]: 3.125 µM
13 | Nc1nc2c(-c3ccc(C(F)(F)F)c(S(N)(=O)=O)c3-c3nnn[nH]3)cccc2s1 [Example 423, 3-(2-amino-1,3-benzothiazol-4-yl)-2-(2H-tetrazol-5-yl)-6-(trifluoromethyl)benzenesulfonamide] | 0.711 | 1.29 | 3.125 | 0.125 | 1.086 | 0.378 |  |  | 
14 | C[N+]1(C)CCC(c2ccc(-c3ccc(C(F)(F)F)c(S(N)(=O)=O)c3-c3nn[nH]n3)cc2)C1 (stereo not drawn) [Example 444, 1,1-dimethyl-3-(3′-sulfamoyl-2′-(2H-tetrazol-5-yl)-4′-(trifluoromethyl)-[1,1′-biphenyl]-4-yl)pyrrolidin-1-ium] | 1.35 | 3.27 | 4.688 | 0.3906 | 2.344 | 2.5 |  |  | 
15 | NS(=O)(=O)c1cccc(C2CCC(O)CC2)c1-c1nn[nH]n1 (stereo not drawn) [Example 171, 3-(4-hydroxycyclohexyl)-2-(2H-tetrazol-5-yl)benzenesulfonamide] |  |  |  |  |  |  | 119 | 8.56 | IC50 (VIM-1; [17]): 128 nM; Klebsiella pneumoniae expressing VIM-1 (IHMA 599644) MITC95 [1]: 25 µM; Serratia marcescens expressing IMP-1 (CL5741) MITC95 [2]: 6.25 µM; Escherichia coli expressing NDM-1 (CLB 30016) MITC95 [3]: 2.344 µM
16 | NS(=O)(=O)c1c(C(F)(F)F)ccc(N2CCC3(CCCNC3)CC2)c1-c1nnn[nH]1 [Example 776, 3-(2,9-diazaspiro[5.5]undec-9-yl)-2-(1H-tetrazol-5-yl)-6-(trifluoromethyl) benzenesulfonamide] |  |  |  |  |  |  | 55.9 | 15.2 | IC50 (VIM-1; [17]): 15.9 nM; Klebsiella pneumoniae MITC95 [1, 19]: 25 µM; Serratia marcescens MITC95 [2, 20]: 50 µM; Escherichia coli MITC95 [3, 21]: 25 µM
17 | NS(=O)(=O)c1c(C(F)(F)F)ccc([C@H]2CC[C@H](NC3CC[C@@H]4CNCC[C@H]4C3)CC2)c1-c1nnn[nH]1 (stereo partly drawn) [Example 684, 3-{4-[(4aS,8aS)-decahydroisoquinolin-6-ylamino]cyclohexyl}-2-(1H-tetrazol-5-yl)-6-(trifluoromethyl)benzene sulfonamide] |  |  |  |  |  |  |  |  | IC50 (VIM-1; [16]): 10.8 nM; IC50 (IMP-1; [5]): 75.7 nM; Klebsiella pneumoniae MITC95 [1, 6]: 12.5 µM; Serratia marcescens MITC95 [2, 7]: 6.25 µM; Escherichia coli MITC95 [3, 8]: 3.125 µM; IC50 (NDM-1; [9]): 38.6 nM
18 | NS(=O)(=O)c1c(C(F)(F)F)ccc(N2CCC3(CCNC3)CC2)c1-c1nnn[nH]1 [Example 775, 3-(2,8-diazaspiro[4.5]dec-8-yl)-2-(1H-tetrazol-5-yl)-6-(trifluoromethyl) benzenesulfonamide] |  |  |  |  |  |  | 35.8 | 9.04 | IC50 (VIM-1; [17]): 5.19 nM; Klebsiella pneumoniae MITC95 [1, 19]: 12.5 µM; Serratia marcescens MITC95 [2, 20]: 6.25 µM; Escherichia coli MITC95 [3, 21]: 3.125 µM
